Experimental data reported in US8334316B2, “Substituted organosulfur compounds and methods of using thereof” (ACEA Biosciences, Inc., priority 2004, dated 2012).
Like-named read-outs stand apart in the source and are kept apart here.

Assay: Acute toxicity, single intravenous injection, LD50 (Bliss method) in Kunming mice
Assay type: in vivo
Conditions: for Dead animals on day 8 after the single intravenous injection / Dead animals on day 9 after the single intravenous injection / Dead animals on days 10-14 after the single intravenous injection / Percentage of dead animals / Dead animals on day 1 after the single intravenous injection / Dead animals on day 2 after the single intravenous injection / Dead animals on day 3 after the single intravenous injection / Dead animals on day 4 after the single intravenous injection / Dead animals on day 5 after the single intravenous injection / Dead animals on day 6 after the single intravenous injection / Dead animals on day 7 after the single intravenous injection: 10 animals; for LD50 at 2 weeks: Kunming, mouse, in vivo, iv
Method: To evaluate the in vivo acute, intravenous toxicity of DBTS and ACEA100108 (a derivative of DBTS, see Table 33), the experiments were performed in non-tumor bearing, normal Kunming mice by monitoring the acute response of mice to a single dose of DBTS or ACEA100108 via intravenous injection (i.v.). The number of death for the treated mice was monitored and recorded. LD50 values for these compounds were calculated. Details of the study are provided below.
The experiments to test DBTS and ACEA100108 acute toxicity were performed in mice. The test mice were randomly divided into six groups (five dosing groups and one control group). Each group contained 20 Kunming strain mice, and among them, 50% were male and 50% were female. After administration of a single dose of DBTS or ACEA100108 via intravenous injection (i.v.), the acute response to DBTS or ACEA100108 compound, and the death of the treated mice during the first two weeks were monitored and recorded. The LD50 value was calculated using the Bliss method.
Materials and Method. The test chemical compound were DBTS and ACEA100108, which were dissolved into hydrogenated castor oil in the pre-warmed water bath and made as a 20 mg/ml solution. The solution was further diluted to desired experiment concentrations with the normal saline. The administration volume was 0.5 ml i.v. per mouse and the injection speed was 0.5 ml/0.5 min.
The experimental mice were Kunming strain, provided by the Experimental Animal Department, Shanghai Pharmaceutical Industry Institute. The certificate number of the facility was Animal Facility Certification Number 107. The average weight of the mice was 18-20 gram. Each test group contained 20 Kunming strain mice, and among them, 10 mice were male and 10 mice were female. […] The mice in the control group were only given the same volume of the solvent, which were diluted hydrogenated castor oil. All the testing mice were given a single intravenous injection of DBTS, ACEA100108, or the solvent that served as the control at the injection speed of 0.5 ml/0.5 min. The acute response to DBTS, ACEA100108 or the solvent immediately after the administration, as well as weight change, and the death within the first two weeks of the administration were monitored and recorded. The intravenous injection LD50 values in mice were calculated using the Bliss method.

Fc1ccc(CSSSCc2ccc(F)cc2)cc1 [ACEA100108, Di(p-fluorobenzyl)trisulfide]
316 mg/kg: LD50 at 2 weeks (both sexes, 50% male, 50% female Kunming mice, single intravenous injection, read-out: LD50) | LD50 at 2 weeks (both sexes, Kunming mice, 50% male 50% female, Bliss method, read-out: mouse single i.v. dose LD50 value)
273 to 360 mg/kg: LD50 at 2 weeks (female, Female Kunming mice, single intravenous injection, confidence limits, read-out: LD50 (95% CL))
50%: Percentage of dead animals (Female, 320 mg/kg)
24.6: Average animal weight, End (Female, 320 mg/kg, Beginning 19.9)
100%: Percentage of dead animals (Female, 500 mg/kg) | Percentage of dead animals (Male, 500 mg/kg)
319 mg/kg: LD50 at 2 weeks (male, Male Kunming mice, single intravenous injection, read-out: LD50)
10: Dead animals on day 1 after the single intravenous injection (Female, 500 mg/kg) | Dead animals on day 1 after the single intravenous injection (Male, 500 mg/kg)
0: Dead animals on day 8 after the single intravenous injection (Female, 320 mg/kg) | Dead animals on day 9 after the single intravenous injection (Female, 320 mg/kg) | Dead animals on day 3 after the single intravenous injection (Female, 400 mg/kg) | Dead animals on day 5 after the single intravenous injection (Female, 400 mg/kg) | Dead animals on day 6 after the single intravenous injection (Female, 400 mg/kg) | Dead animals on day 7 after the single intravenous injection (Female, 400 mg/kg) | Dead animals on day 8 after the single intravenous injection (Female, 400 mg/kg) | Dead animals on day 9 after the single intravenous injection (Female, 400 mg/kg) | Dead animals on day 2 after the single intravenous injection (Female, 500 mg/kg) | Dead animals on day 3 after the single intravenous injection (Female, 500 mg/kg) | Dead animals on day 4 after the single intravenous injection (Female, 500 mg/kg) | Dead animals on day 5 after the single intravenous injection (Female, 500 mg/kg) | Dead animals on day 6 after the single intravenous injection (Female, 500 mg/kg) | Dead animals on day 7 after the single intravenous injection (Female, 500 mg/kg) | Dead animals on day 8 after the single intravenous injection (Female, 500 mg/kg) | Dead animals on day 9 after the single intravenous injection (Female, 500 mg/kg) | Dead animals on day 1 after the single intravenous injection (Male, 163.8 mg/kg) | Dead animals on day 2 after the single intravenous injection (Male, 163.8 mg/kg) | Dead animals on day 3 after the single intravenous injection (Male, 163.8 mg/kg) | Dead animals on day 4 after the single intravenous injection (Male, 163.8 mg/kg) | Dead animals on day 5 after the single intravenous injection (Male, 163.8 mg/kg) | Dead animals on day 6 after the single intravenous injection (Male, 163.8 mg/kg) | Dead animals on day 7 after the single intravenous injection (Male, 163.8 mg/kg) | Dead animals on day 8 after the single intravenous injection (Male, 163.8 mg/kg) | Dead animals on day 9 after the single intravenous injection (Male, 163.8 mg/kg) | Dead animals on day 1 after the single intravenous injection (Male, 204.8 mg/kg) | Dead animals on day 2 after the single intravenous injection (Male, 204.8 mg/kg) | Dead animals on day 4 after the single intravenous injection (Male, 204.8 mg/kg) | Dead animals on day 5 after the single intravenous injection (Male, 204.8 mg/kg) | Dead animals on day 6 after the single intravenous injection (Male, 204.8 mg/kg) | Dead animals on day 7 after the single intravenous injection (Male, 204.8 mg/kg) | Dead animals on day 8 after the single intravenous injection (Male, 204.8 mg/kg) | Dead animals on day 9 after the single intravenous injection (Male, 204.8 mg/kg) | Dead animals on day 1 after the single intravenous injection (Male, 256 mg/kg) | Dead animals on day 3 after the single intravenous injection (Male, 256 mg/kg) | Dead animals on day 5 after the single intravenous injection (Male, 256 mg/kg) | Dead animals on day 6 after the single intravenous injection (Male, 256 mg/kg) | Dead animals on day 7 after the single intravenous injection (Male, 256 mg/kg) | Dead animals on day 8 after the single intravenous injection (Male, 256 mg/kg) | Dead animals on day 9 after the single intravenous injection (Male, 256 mg/kg) | Dead animals on day 1 after the single intravenous injection (Male, 320 mg/kg) | Dead animals on day 4 after the single intravenous injection (Male, 320 mg/kg) | Dead animals on day 5 after the single intravenous injection (Male, 320 mg/kg) | Dead animals on day 6 after the single intravenous injection (Male, 320 mg/kg) | Dead animals on day 7 after the single intravenous injection (Male, 320 mg/kg) | Dead animals on day 8 after the single intravenous injection (Male, 320 mg/kg) | Dead animals on day 9 after the single intravenous injection (Male, 320 mg/kg) | Dead animals on day 3 after the single intravenous injection (Male, 400 mg/kg) | Dead animals on day 5 after the single intravenous injection (Male, 400 mg/kg) | Dead animals on day 6 after the single intravenous injection (Male, 400 mg/kg) | Dead animals on day 7 after the single intravenous injection (Male, 400 mg/kg) | Dead animals on day 8 after the single intravenous injection (Male, 400 mg/kg) | Dead animals on day 9 after the single intravenous injection (Male, 400 mg/kg) | Dead animals on day 2 after the single intravenous injection (Male, 500 mg/kg) | Dead animals on day 3 after the single intravenous injection (Male, 500 mg/kg) | Dead animals on day 4 after the single intravenous injection (Male, 500 mg/kg) | Dead animals on day 5 after the single intravenous injection (Male, 500 mg/kg) | Dead animals on day 6 after the single intravenous injection (Male, 500 mg/kg) | Dead animals on day 7 after the single intravenous injection (Male, 500 mg/kg) | Dead animals on day 8 after the single intravenous injection (Male, 500 mg/kg) | Dead animals on day 9 after the single intravenous injection (Male, 500 mg/kg)
40%: Percentage of dead animals (Male, 320 mg/kg)
30%: Percentage of dead animals (Male, 256 mg/kg)
80%: Percentage of dead animals (Female, 400 mg/kg)
272 to 375 mg/kg: LD50 at 2 weeks (male, Male Kunming mice, single intravenous injection, confidence limits, read-out: LD50 (95% CL))
2: Dead animals on day 2 after the single intravenous injection (Female, 400 mg/kg) | Dead animals on day 2 after the single intravenous injection (Male, 256 mg/kg)
0%: Percentage of dead animals (Male, 163.8 mg/kg)
23.5: Average animal weight, End (Female, 400 mg/kg, Beginning 19.9)
26.7: Average animal weight, End (Male, 320 mg/kg, Beginning 20.0)
10%: Percentage of dead animals (Male, 204.8 mg/kg)
26.3: Average animal weight, End (Male, 204.8 mg/kg, Beginning 20.3) | Average animal weight, End (Male, 256 mg/kg, Beginning 20.2)
5: Dead animals on day 1 after the single intravenous injection (Female, 400 mg/kg)
0 - - - 0: Dead animals on days 10-14 after the single intravenous injection (Female, 320 mg/kg) | Dead animals on days 10-14 after the single intravenous injection (Female, 400 mg/kg) | Dead animals on days 10-14 after the single intravenous injection (Female, 500 mg/kg) | Dead animals on days 10-14 after the single intravenous injection (Male, 163.8 mg/kg) | Dead animals on days 10-14 after the single intravenous injection (Male, 204.8 mg/kg) | Dead animals on days 10-14 after the single intravenous injection (Male, 256 mg/kg) | Dead animals on days 10-14 after the single intravenous injection (Male, 320 mg/kg) | Dead animals on days 10-14 after the single intravenous injection (Male, 400 mg/kg) | Dead animals on days 10-14 after the single intravenous injection (Male, 500 mg/kg)
284 to 351 mg/kg: LD50 at 2 weeks (both sexes, 50% male, 50% female Kunming mice, single intravenous injection, confidence limits, read-out: LD50 (95% CL)) | LD50 at 2 weeks (both sexes, Kunming mice, 50% male 50% female, Bliss method, read-out: mouse single i.v. dose LD50, interval in parentheses)
26.0: Average animal weight, End (Male, 400 mg/kg, Beginning 19.9)
1: Dead animals on day 4 after the single intravenous injection (Female, 400 mg/kg) | Dead animals on day 3 after the single intravenous injection (Male, 204.8 mg/kg) | Dead animals on day 4 after the single intravenous injection (Male, 256 mg/kg) | Dead animals on day 3 after the single intravenous injection (Male, 320 mg/kg) | Dead animals on day 4 after the single intravenous injection (Male, 400 mg/kg)
3: Dead animals on day 2 after the single intravenous injection (Male, 320 mg/kg) | Dead animals on day 1 after the single intravenous injection (Male, 400 mg/kg) | Dead animals on day 2 after the single intravenous injection (Male, 400 mg/kg)
27.0: Average animal weight, End (Male, 163.8 mg/kg, Beginning 20.4)
313 mg/kg: LD50 at 2 weeks (female, Female Kunming mice, single intravenous injection, read-out: LD50)
70%: Percentage of dead animals (Male, 400 mg/kg)
